According to paper PMC10954696, “Development of a novel AAK1 inhibitor via Kinobeads-based screening” (Scientific Reports, 2024):
Entries after “also recorded” stand apart in the source; their conditions may differ.

Legend:
His-BIKE 2–396 = target: T1, His-BIKE 2–396 (Mus musculus, UniProt Q91Z96); experiment: NAKs activity assay: phosphorylation of GST-AP2µ2 (145–162); type: biochemical; settings: His-BIKE 2–396, 0.1 mM ATP, 30 °C, 90 min, duplicate experiments; read-out: IC50 against BIKE activity
T1 construct: His-BIKE 2–396 (87 ng); His6 (N); made in house; host or cells: COS-7 cells
T1 sequence (Q91Z96 2-396): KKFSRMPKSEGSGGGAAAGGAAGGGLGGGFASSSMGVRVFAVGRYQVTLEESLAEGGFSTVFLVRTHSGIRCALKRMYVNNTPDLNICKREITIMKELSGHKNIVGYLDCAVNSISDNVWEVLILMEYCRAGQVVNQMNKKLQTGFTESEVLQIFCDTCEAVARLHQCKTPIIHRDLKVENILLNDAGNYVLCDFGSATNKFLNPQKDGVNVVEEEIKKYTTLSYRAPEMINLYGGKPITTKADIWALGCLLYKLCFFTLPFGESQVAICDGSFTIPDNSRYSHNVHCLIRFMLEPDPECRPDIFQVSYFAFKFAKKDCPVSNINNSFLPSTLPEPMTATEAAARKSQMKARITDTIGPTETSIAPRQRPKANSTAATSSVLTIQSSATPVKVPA
Procedure: (§1) Purified His-AAK1 25–396 (200 ng), His-GAK 2–370 (33 ng), His-BIKE 2–396 (87 ng), and His-STK16 2–306 (95 ng) were incubated with 10 µg GST-AP2µ2 (145–162)-His6 in a solution (20 µL) containing 50 mM HEPES pH7.5, 10 mM Mg(CH3COO)2, 1 mM DTT, and 0.1 mM [γ-^32P]ATP or ATP at 30 °C for the indicated time periods (His-GAK 2–370, 10 min; His-BIKE 2–396, 90 min; His-STK16 2–306, 20 min) in the presence or absence of various concentrations of inhibitors (5% DMSO). Then, 15 µL of the sample was spotted onto Whatman P81 paper and washed using 95% EtOH, followed by scintillation counting of the paper to measure the phosphate incorporation into GST-AP2µ2 (145–162)-His6. For immunoblot detection, reactions were terminated by the addition of an equal volume of 2 × SDS-PAGE buffer at various time points, followed by immunoblot analyses using an anti-phospho-AP2µ2 (AP2M1) at Thr156 antibody.
(§2) Supplemental Information S3
(§3) Effect of TIM-98a on NAKs’ activities. Purified His-GAK 2–370 (33 ng, closed triangles), His-BIKE 2–396 (87 ng, closed circles), and His-STK16 2–306 (95 ng, open circles) were incubated with 10 µg GST-AP2µ2 (145–162)-His6 in a solution (20 µL) containing 50 mM HEPES pH7.5, 10 mM Mg(CH3COO)2, 1 mM DTT, and 0.1 mM ATP at 30°C for the indicated time periods (His-GAK 2–370, 10 min; His-Bike 2–396, 90 min; His-STK16 2–306, 20 min) in the presence or absence (-) of various concentrations of TIM-098a. […] NAK’s activities are quantitated by densitometric scanning of the immunoreactive bands and expressed as a percentage of the average value in the absence of the compound (-). Results represent duplicate experiments. Molecular mass markers (kDa) are indicated in the left lanes of immunoblot panels.
(§4) (1 picture or pasted object on this page, not shown here)

His-STK16 2–306 = target: T2, His-STK16 2–306 (Mus musculus, UniProt O88697); experiment: as above; type: biochemical; settings: His-STK16 2–306, 0.1 mM ATP, 30 °C, 20 min, duplicate experiments; read-out: IC50 against STK16 activity
T2 construct: His-STK16 2–306 (95 ng); His6 (N); made in house; host or cells: COS-7 cells
T2 sequence (O88697 2-305 limits assumed): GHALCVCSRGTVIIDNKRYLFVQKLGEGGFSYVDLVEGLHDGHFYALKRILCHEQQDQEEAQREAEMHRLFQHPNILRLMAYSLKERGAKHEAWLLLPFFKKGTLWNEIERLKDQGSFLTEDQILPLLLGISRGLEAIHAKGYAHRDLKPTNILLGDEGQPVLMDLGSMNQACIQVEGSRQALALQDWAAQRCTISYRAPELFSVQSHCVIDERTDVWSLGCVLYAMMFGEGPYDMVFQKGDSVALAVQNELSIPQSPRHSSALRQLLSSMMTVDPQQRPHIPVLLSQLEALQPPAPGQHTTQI
Procedure: as §1, §2, §3, §4

His-GAK 2–370 = target: T3, His-GAK 2–370 (Mus musculus, UniProt Q99KY4); experiment: as above; type: biochemical; settings: His-GAK 2–370, 0.1 mM ATP, 30 °C, 10 min, duplicate experiments; read-out: IC50 against GAK activity
T3 construct: His-GAK 2–370 (33 ng); His6 (N); made in house; host or cells: COS-7 cells
T3 sequence (Q99KY4 2-370): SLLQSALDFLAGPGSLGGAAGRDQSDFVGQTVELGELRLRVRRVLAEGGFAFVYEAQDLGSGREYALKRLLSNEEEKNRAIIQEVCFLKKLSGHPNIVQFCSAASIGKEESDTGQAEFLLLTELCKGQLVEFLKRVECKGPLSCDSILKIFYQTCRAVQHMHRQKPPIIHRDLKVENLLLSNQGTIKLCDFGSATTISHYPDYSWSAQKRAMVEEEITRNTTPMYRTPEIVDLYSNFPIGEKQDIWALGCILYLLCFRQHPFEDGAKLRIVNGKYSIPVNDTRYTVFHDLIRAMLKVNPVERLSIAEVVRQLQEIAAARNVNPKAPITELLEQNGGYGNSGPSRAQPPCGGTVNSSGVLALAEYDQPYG
Procedure: as §1, §2, §3, §4

[1] = target: T4, AAK1 catalytic domain (25–396) in transfected COS-7 cells (Homo sapiens, UniProt Q2M2I8); experiment: AAK1 activity in transfected COS-7 cells (pThr156 of GST-AP2µ2 145–162, immunoblot); type: cell-based; settings: COS-7 cells expressing AAK1 25–396 and GST-AP2µ2 (145–162), 6 h treatment
T4 construct: transfected with 0.2 µg of pME-His-AAK1 25–396; expressed in transfected cells; host or cells: COS-7 cells
T4 sequence (Q2M2I8 25-396): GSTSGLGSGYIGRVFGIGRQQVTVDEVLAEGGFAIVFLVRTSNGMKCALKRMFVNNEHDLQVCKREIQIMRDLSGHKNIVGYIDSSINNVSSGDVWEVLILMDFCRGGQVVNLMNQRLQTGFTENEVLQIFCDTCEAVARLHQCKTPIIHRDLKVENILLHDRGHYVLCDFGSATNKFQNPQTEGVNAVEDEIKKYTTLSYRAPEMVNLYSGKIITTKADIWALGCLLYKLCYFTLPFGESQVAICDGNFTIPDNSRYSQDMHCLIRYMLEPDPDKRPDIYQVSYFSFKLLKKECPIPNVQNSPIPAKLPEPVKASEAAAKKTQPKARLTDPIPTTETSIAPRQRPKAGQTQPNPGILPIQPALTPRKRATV
Procedure: To examine the effect of TIM-098a on AAK1 activity in cells, we set up an AAK1 activity assay in the cells as follows. Transfection of expression plasmids for the catalytic domain of AAK1(25–396) together with its artificial substrate (GST-AP2µ2 145–162) into COS-7 cells was followed by detection of phosphorylation of Thr156 via immunoblot analyses with anti-phospho-Thr156 antibody after 6 h-treatment with or without TIM-098a (Fig. 5). […] When we treated AAK1/GST-AP2µ2 (145–162) expressing COS-7 cells with various concentrations of TIM-098a, AAK1-catalyzed Thr156 phosphorylation of GST-AP2µ2 (145–162) was suppressed by TIM-098a treatment in a concentration-dependent manner (Fig. 5b), indicating the cell-membrane permeability and inhibitory effect of the inhibitor on AAK1 activity in the cells.
COS-7 cells and HeLa cells were obtained from American Type Culture Collection. COS-7 cells were cultured in 6-well plates or 10 cm dishes in Dulbecco’s modified Eagle’s medium supplemented with 10% fetal bovine serum at 37 °C in 5% CO2. COS-7 cells in 6-well plates were transfected with 0.2 µg of pME-His-AAK1 25–396 and 1.8 µg of pME-GST-AP2µ2 (145–162) expression plasmids using polyethylenimine “MAX” (Polysciences, Inc. Warrington, PA), according to the manufacturer’s protocol. […]

CaMKKα/1 [2] = target: T5, CaMKKα/1 (Rattus norvegicus, UniProt P97756); experiment: CaMKK activity assay: phosphorylation of GST-CaMKIα 1–293KE; type: biochemical; settings: up to 2.6 µM, immunoblot anti-phospho-CaMKIα (pThr177), 30 °C, 10 min, Fig. 4c
T5 construct: His6; made in house; host or cells: COS-7 cells
Procedure: (§5) Purified His-CaMKKα/1 or His-CaMKKβ/2 (40 ng) was incubated with 10 µg GST-CaMKIα 1–293KE in a solution (20 µL) containing 50 mM HEPES pH7.5, 10 mM Mg (CH3COO)2, 1 mM DTT, 2 mM CaCl2, 6 µM CaM, and 0.1 mM [γ-^32P]ATP at 30 °C for a reaction time of 20 min in the presence or absence of compounds. Then, 15 µL of the sample was spotted onto Whatman P81 paper, followed by scintillation counting of the paper as described above to measure the phosphate incorporation into GST-CaMKIα 1–293KE. Reactions were terminated by the addition of an equal volume of 2 × SDS-PAGE for the immunoblot assay at 30 °C for 10 min using 2.5 ng of CaMKKs in the solution described above containing 0.1 mM ATP, followed by immunoblot analyses using anti-phospho-CaMKIα at the Thr177 antibody.

CaMKKβ/2 [3] = target: T6, CaMKKβ/2 (Rattus norvegicus, UniProt O88831); experiment: as above; type: biochemical; settings: up to 2.6 µM, immunoblot anti-phospho-CaMKIα (pThr177), 30 °C, 10 min, Fig. 4c
T6 construct: His6; made in house; host or cells: COS-7 cells
Procedure: as §5

[4] = tested on: HeLa cells overexpressing His-tagged AAK1 (1–863); experiment: Early endosome formation (EEA1-positive vesicles), immunofluorescence microscopy; type: cell-based, human; settings: 10 µM, 6 h, AAK1-transfected HeLa cells
Procedure: (§6) HeLa cells were cultured in 6-well plates containing Dulbecco’s modified Eagle’s medium supplemented with 10% fetal bovine serum at 37 °C in 5% CO2. The cells were transfected with 2 µg of an AAK1-expression plasmid (pME-His-AAK1 1–863) using polyethylenimine “MAX” according to the manufacturer’s protocol. After 42 h of culture, the cells were cultured with or without 10 µM TIM-098a for 6 h. HeLa cells grown on coverslips were fixed with 3.7% paraformaldehyde in PBS for 15 min and permeabilized with 0.1% Triton X-100 in PBS for 5 min at room temperature. Next, the cells were blocked with 4% bovine serum albumin (BSA) in PBS for 15 min and incubated with primary antibodies diluted in 4% BSA in PBS for 15 min. The cells were washed three times with PBS and incubated for 15 min with the appropriate secondary antibodies conjugated to Alexa fluorophores. After washing, the coverslips were mounted on microscope slides and viewed under an FV1000 confocal microscope (Olympus, Tokyo, Japan). Quantification of EEA1-positive vesicles was performed using ImageJ software. EEA1 fluorescence signals with areas greater than 430 nm^2 were counted as EEA1-positive vesicles using the particle analyzer function in ImageJ. To account for clustered EEA1 signals, the watershed segmentation method was applied in ImageJ before using the particle analyzer.

HeLa cells = experiment: as above; type: cell-based, human; settings: 10 µM, 6 h, untransfected HeLa cells
Procedure: as §6

[5] = target: T7, His-tagged AAK1 catalytic domain (25–396) (Homo sapiens, UniProt Q2M2I8); experiment: AAK1 activity assay: phosphorylation of GST-AP2µ2 (145–162) by His-AAK1 25–396 with [γ-32P]ATP; type: biochemical; settings: for IC50: His-AAK1 25–396, GST-AP2µ2 (145–162), 100 µM [γ-32P]ATP, 30 °C, 20 min, read-out: IC50 against AAK1 activity
T7 construct: Purified His-AAK1 25–396 (200 ng); His10 (N); made in house; host or cells: COS-7 cells
T7 sequence (Q2M2I8 25-396): as above
Procedure: AAK1 phosphorylates AP2µ2 at Thr156; therefore, we set up an AAK1 activity assay using GST-fused AP2µ2 fragment (residues 145–162) as a substrate and anti-phospho-Thr156 antibody for detection of the substrate phosphorylation by AAK1.
as §1

CaMKKβ/2 [6] = target: T6, CaMKKβ/2; set-up: method as in PMID 32298102; settings: cited from earlier work
CaMKKα/1 [7] = target: T5, CaMKKα/1; set-up: method as in PMID 32298102; settings: cited from earlier work
His-tagged AAK1 = target: T8, His-tagged AAK1 (Homo sapiens, UniProt Q2M2I8); experiment: Pull-down of His-tagged AAK1 from COS-7 cell extracts with TIM-063–immobilized sepharose (TIM-127-sepharose); type: binding; settings: COS-7 extracts, elution with 100 µM TIM-063
T8 construct: expressed in transfected cells; host or cells: COS-7 cells
Procedure: COS-7 cells transfected with expression plasmids for His-tagged AAK1 were lysed with buffer A containing protease inhibitors as described above, and then cell lysates (200 µL) were incubated with either TIM-127-coupled sepharose or control sepharose (10 µL) for 30 min. After washing the resin thrice with buffer A (500 µL), samples were eluted from the sepharose resin by incubation with 20 µL of 100 µM TIM-063 in buffer A as previously described, followed by immunoblot analysis.

Row | Compound | IC50 (His-BIKE 2–396) [nM] | IC50 (His-STK16 2–306) [nM] | IC50 (His-GAK 2–370) [nM] | IC50 [1] [nM] | effect on CaMKKα/1 activity (CaMKKα/1 [2]) | effect on CaMKKβ/2 activity (CaMKKβ/2 [3]) | number of early endosomes in AAK1-transfected cells [4] | early endosome formation in wild type cells (HeLa cells) | IC50 [5] [nM] | AAK1 inhibitory potency relative to TIM-063 ([5]; higher potency than TIM-063) | selectivity for AAK1: higher inhibitory potency than for other NAKs ([5]; versus GAK, BIKE, STK16) | IC50 (CaMKKβ/2 [6]) [nM] | IC50 (CaMKKα/1 [7]) [nM] | interaction with AAK1 catalytic domain (His-AAK 25–396) (His-tagged AAK1) | interaction with His-tagged AAK1 full length (1–863) (His-tagged AAK1) | inhibition at 2.6 µM ([5]; 2.6 µM compound) [%] | inhibition at 26 µM ([5]; 26 µM compound) [%] | inhibitory effect on AAK1 relative to that on CaMKK ([5]; lower on AAK1 than on CaMKK)
1 | Nc1ccc2c(c1)nc1c3cc(O)cc4cccc(c(=O)n21)c43 [TIM-098a, 11-amino-2-hydroxy-7H-benzo[de]benzo[4,5]imidazo[2,1-a]isoquinolin-7-one] | 5990 | 7150 | 1040 | 870 | without any significant inhibitory effects; also recorded: without any inhibitory activity | without any significant inhibitory effects; also recorded: without any inhibitory activity | recovered to the level of untransfected wild type cells | not affected | 240 | ~ 35 fold | 4–30 fold |  |  |  |  |  |  | 
2 | O=c1c2cccc3c([N+](=O)[O-])c(O)cc(c32)c2nc3ccccc3n12 [TIM-063, 2-hydroxy-3-nitro-7H-benzo[de]benzo[4,5]imidazo[2,1-a]isoquinolin-7-one] |  |  |  |  |  |  |  |  | 8510 |  |  | 960 | 630 | strong interaction | weak binding | ~20 | ~80 | ~ tenfold
